Results reported in ChEMBL document CHEMBL4002596, “Hydroxylated biphenyls as tyrosinase inhibitor: A spectrophotometric and electrochemical study” (Eur J Med Chem, 2017).
Activity calls are given as the source filed them. The rule behind the calls is not given here.

Tests used:
[1] = target: T1, Mushroom tyrosinase (Agaricus bisporus) (UniProt O42713+Q00024+C7FF04+C7FF05); test: Inhibition of immobilized mushroom tyrosinase diphenolase activity assessed as reduction in caffeic acid oxidation at 50 uM by amperometric tyrosinase biosensor method
[2] = target: T1, Mushroom tyrosinase (Agaricus bisporus); test: Inhibition of mushroom tyrosinase assessed as reduction in caffeic acid oxidation measured after 6 mins by UV-Vis spectrophotometric method
[3] = target: T1, Mushroom tyrosinase (Agaricus bisporus); test: Inhibition of mushroom tyrosinase diphenolase activity assessed as reduction in caffeic acid oxidation measured after 6 mins by UV-Vis spectrophotometric method
[4] = Aqueous solubility of the compound; type: physicochemical; conditions: buffer
Lymphocyte = test: Cytotoxicity against human lymphocytes; type: cell-based
[5] = target: T1, Mushroom tyrosinase (Agaricus bisporus); test: Inhibition of mushroom tyrosinase monophenolase activity assessed as reduction in lag time of enzymatic reaction at 50 uM using caffeic acid as substrate by amperometric tyrosinase biosensor method

Compound	inhibition [1]	inhibition [2]	inhibition [3] [%]	solubility [4]	inhibition [5]	IC50 (Lymphocyte) [µM]
Oc1cccc(O)c1-c1c(O)cccc1O	Active	Active				
Oc1ccccc1-c1ccccc1O	10 to 20%	10%				
C=CCc1cc(-c2ccc(O)c(CC=C)c2)ccc1O	Active	Active				< 100
Oc1ccc2c(c1-c1c(O)ccc3c1OCO3)OCO2	82%	Active			Active	

Second part, led by results:

inhibition [1]	inhibition [2]	inhibition [3] [%]	solubility [4]	inhibition [5]	Compound	IC50 (Lymphocyte) [µM]
Active					COc1cc(C)c(-c2cc(O)c(OC)cc2C)cc1O	
Active	Active				Oc1ccc(-c2ccc(O)cc2)cc1	
Active	Active				COc1cc(O)cc(-c2cc(O)cc(OC)c2OC)c1OC	
Active	Active	60	Soluble		Oc1ccc(-c2ccc(O)c(O)c2)cc1O	
